# Experimental data from patent US9592223B2, “Small molecule inhibitors of MALT1” (Cornell University, priority 2012, dated 2017).
# Legend:
# [1] = system: MALT1-mediated cleavage of CYLD; assay: MALT1-mediated cleavage of CYLD in HBL-1 cells, Western blotting and densitometry; assay type: cell-based, human
# Experimental: A total of 704 analog compounds from available libraries with similarity score ≧70% (Tanimoto similarity functions) were screened by LZ-MALT1 fluorescence assay.
# Equal amounts of total protein (20-75 μg) were separated on sodium dodecyl sulfate-polyacrylamide gel electrophoresis (SDS-PAGE), and electrotransferred onto nitrocellulose membranes. Membranes were incubated with primary antibodies (MALT1, BCL-10, CYLD from Santa Cruz Biotechnologies, Santa Cruz, Calif.; A20 from eBioscience, San Diego, Calif.; phospho-IκB-α, IκB-α, c-REL, RELB from Cell Signaling, Danvers, Mass. and α-Tubulin from Sigma), followed by secondary antibodies conjugated to horseradish peroxidase, which were detected by chemiluminescence (Pierce, Thermo Scientific, Rockford, Ill.).
# [2] = system: TMD8 ABC-DLBCL xenografts; assay: TMD8 xenograft in NOD-SCID mice; assay type: in vivo; details: IP 25 mg/kg/day
# Experimental: Animals were sacrificed 24 hr after the fourteenth injection.
# Eight-week old male SCID NOD.CB17-Prkdc^scid/J mice were subcutaneously injected with low-passage 10^7 human HBL-1, TMD8 or OCI-Ly1 cells. Treatment was administered by intra-peritoneal injection. Tumor volume was monitored by three-weekly digital calipering. All procedures followed US NIH protocols and were approved by the Animal Institute Committee of the Weill Cornell Medical College.
# Eight-week old male SCID NOD.CB17-Prkdc^scid/J mice were purchased from Jackson Laboratories (Bar Harbor, Minn.) and housed in a clean environment. Mice were subcutaneously injected with low-passage 10^7 human TMD8 or OCI-Ly1 cells in 50% matrigel (BD Biosciences, #354234). Treatment was initiated when tumors reached an average size of 120 mm^3 (17 days post-transplantation). Drugs were reconstituted in DMSO and stored at −80° C. until used and were administered by intra-peritoneal injection. Tumor volume was monitored by three-weekly digital calipering (Fisher Scientific, Thermo Scientific, Rockford, Ill.) and calculated using the formula (smallest diameter^2×largest diameter)/2. Data were expressed as mean±SEM, and differences were considered statistically significant at p<0.05 by paired Student's t-test. All procedures involving animals followed US NIH protocols and were approved by the Animal Institute Committee of the Weill Cornell Medical College of Cornell University.
# Paraffin-embedded tumor xenografts were sectioned, dewaxed and submitted to antigen retrieval. For IF-P, Alexa Fluor-488 conjugated secondary antibodies from Invitrogen where used and cell nuclei where counterstained with DAPI. Fluorescent images were taken using an Axiovert 200M fluorescent microscope (Carl Zeiss Inc., Thornwood, N.Y.). Oberkochen, Germany). For IHC, biotin-conjugated secondary antibodies where used. Then avidin/biotin peroxidase was applied to the slides (Vector Laboratories). Color was developed with diaminobenzoate chromogen peroxidase substrate (Vector) and counterstained with hematoxilin-eosyn. […]
# Caspase-9 = Caspase-9 (Homo sapiens, UniProt P55211); assay: Caspase selectivity; assay type: biochemical
# [3] = system: GCB-DLBCL cell lines OCI-Ly7 and OCI-Ly1; assay: Growth inhibition, GCB-DLBCL cell lines; assay type: cell-based, human; details: increasing concentrations, single dose, 48 hr
# Experimental: Endogenous MALT1 activity was evaluated by Western blotting for A20, BCL10 and CYLD; and NF-κB activation, by phospho-IκB-α and total IκB-α. Dependence on MALT1 proteolytic activity for proliferation was tested by 50[…]μM Z-VRPR-FMK treatment for 48 hr. […] The U2932 and HLY1 ABC-DLBCL cell lines harbor mutations in TAK1 and A20, which activate NF-κB signaling downstream of MALT1.
# Cell proliferation was determined by ATP quantification using a luminescent method (CellTiter-Glo, Promega, Madison, Wis.) and Trypan blue dye-exclusion (Sigma, St. Louis, Mo.). Cell viability in drug-treated cells was normalized to their respective controls (fractional viability) and results are given as 1-fractional viability. […]
# DLBCL cell lines were grown in exponential growth conditions during the 48 hr of treatment. Cell proliferation was determined by ATP quantification using a luminescent method (CellTiter-Glo, Promega, Madison, Wis.) and Trypan blue dye-exclusion (Sigma, St. Louis, Mo.). Luminescence was measured using the Synergy4 microplate reader (BioTek Instruments, Winooski, Vt.). Standard curves for each cell line were calculated by plotting the cell number (determined by the Trypan blue method) against their luminescence values and number of cells was calculated accordingly. […]
# Caspase-9, sequence (P55211 whole entry, species assumed): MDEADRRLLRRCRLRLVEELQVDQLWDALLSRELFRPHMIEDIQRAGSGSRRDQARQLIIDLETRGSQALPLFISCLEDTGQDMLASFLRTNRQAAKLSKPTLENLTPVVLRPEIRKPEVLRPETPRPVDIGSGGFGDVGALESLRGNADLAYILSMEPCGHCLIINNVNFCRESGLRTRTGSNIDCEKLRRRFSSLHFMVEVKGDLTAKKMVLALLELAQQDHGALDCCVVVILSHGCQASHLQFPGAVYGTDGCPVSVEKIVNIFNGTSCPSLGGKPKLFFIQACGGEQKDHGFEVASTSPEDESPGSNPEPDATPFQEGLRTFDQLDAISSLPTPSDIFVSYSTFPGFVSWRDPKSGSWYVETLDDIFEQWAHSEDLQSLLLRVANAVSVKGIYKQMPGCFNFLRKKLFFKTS
smiles,measurement,setting,value
COCCOc1nc(-c2ccc(Cl)c(Cl)c2)n(-c2ccc(NC(=O)CCl)cc2)n1 [MI-2],MALT1-mediated cleavage of CYLD,"[1]; HBL-1, increasing concentrations, 24 hr",dose-dependent decrease in MALT1-mediated cleavage
same,inhibition of MALT1 cleavage of CYLD,"[1]; analogs 5 μM for 8 hr, Z-VRPR-FMK 50 μM as positive control",most potent compound
same,xenograft growth vs. vehicle,"[2]; fourteen injections, p=0.015",profoundly suppressed the growth
same,apoptotic cells (TUNEL assay),[2]; p<0.0001,significant increase in apoptotic cells
same,proliferation (Ki-67 staining),[2]; p=0.0006,significant decrease in proliferation
same,activity against Caspase-9,Caspase-9,little activity
same,growth inhibition,[3],resistant
